Experimental data published in patent US8067197B2, “Soluble recombinant αvβ3 adhesion receptor” (Merck Patent GmbH, priority 1996, dated 2011).
Square brackets hold non-standard residues; d marks the D form. βAla = NCCC(=O)O

Tests used:
[1] = biological target: αVβ3 receptor (placenta, full length recombinant, soluble recombinant); assay: Competition assay: inhibition of biotinylated vitronectin binding to immobilized integrin; parameters: species or system human; conditions: biotinylated vitronectin 1 μg/ml, 3 h, 37° C.
Protocol: The truncated and full length recombinant αVβ3 and placenta αVβ3 are immobilized and binding of biotinylated ligands is examined. Three purified RGD-containing ligands—vitronectin, fibrinogen and fibronectin—that are known to bind to αVβ3 are used. […] Biotinylated vitronectin and increasing concentrations of above-specified peptides or non-peptidic analogues are incubated in parallel with immobilized receptor.
Integrins were immobilized as described above. Serially diluted cyclic peptides were added in parallel with biotinylated vitronectin (1 μg/ml). After 3 h incubation at 37° C., bound ligand was detected as described above. […]

[2] = test system: αV and β3 virus infected Sf9 cells; assay: Cell shape change studies of virus-infected Sf9 cells on vitronectin coated plates; assay type: cell-based, insect; conditions: result in words
Description: Integrins determine and modulate the cell shape by acting as structural links between the extracellular matrix and the cytoskeleton (Schwartz et al. 1995, Ann. Rev. Cell Dev. Biol. 11, 549; Montgomery et al. 1994, Proc. Natl. Acad. Sci. USA 91, 8856). In later phases of baculovirus infection, Sf9/High Five cells are usually rounded and loosely attached (FIG. 3A), as were the cells infected with either of the αV or β3 expressing recombinant baculovirus alone or with the null recombinant virus (FIG. 3A). […] No shape change is observed in cells co-infected with αV(FL)+β3(SL) or αV(SL)+β3(SL). […] Correspondingly, cell shape change of αV and β3 virus infected Sf9 cells on vitronectin coated plates are inhibited when challenged with RGD peptides (Table 1).
Sf9 cells (1×10^6 cells/well) were allowed to adhere to six-well plates either virgin or coated with purified human plasma vitronectin (5 μg/ml in PBS; 2 hours) followed by blocking of non-specific sites (3% BSA (w/v) in PBS), then infected with various virus combinations. The cells were observed 48 hours post-infection for cell shape change.

[3] = test system: αVβ3 receptor (placenta, full length recombinant, soluble recombinant); assay: Ligand binding assay: biotinylated ligands on immobilized integrins; parameters: species or system human; conditions: full length and soluble recombinant αVβ3, compared with placental αVβ3; result in words
Protocol: The truncated and full length recombinant αVβ3 and placenta αVβ3 are immobilized and binding of biotinylated ligands is examined. Three purified RGD-containing ligands—vitronectin, fibrinogen and fibronectin—that are known to bind to αVβ3 are used. […] Vitronectin is used for testing specific interaction with the recombinant αVβ3. Biotinylated vitronectin and increasing concentrations of above-specified peptides or non-peptidic analogues are incubated in parallel with immobilized receptor.
Proteins in PBS were diluted with 5-fold concentrated ligation buffer [500 mM NaCl, 500 mM NaHCO3] to 1 mg/ml protein. Freshly prepared N-hydroxysuccinimidobiotin (Sigma) [1 mg/ml in DMSO] was added to 0.1 mg/ml and incubated for 2 h at 20° C. After dialysis [PBS, 0.025% NaN3], protein concentration was determined. The biotinylated proteins were stored at 4° C.
Ligand Binding assay Integrins were diluted to 1 μg/ml in coating buffer [150 mM NaCl, 1 mM CaCl2, 1 mM MgCl2, 10 μM MnCl2, 20 mM Tris-HCl; pH 7.4) and 100 μl were adsorbed overnight at 4° C. to 96-well microtitre plates. The plates were washed once with binding buffer [0.1% (w/v) BSA in coating buffer] and blocked with blocking buffer (coating buffer containing 3% (w/v) BSA) 2 h at 37° C. After rinsing with binding buffer, serially diluted biotinylated ligands were added. After incubation (3 h, 37° C.), unbound ligand was washed from the plate with binding buffer, and bound biotin was detected by incubation with antibiotin-alkaline-phosphatase conjugated antibody and detection of bound antibody with p-Nitrophenyl-phosphate (BIO-RAD) substrate.
Target sequence in this assay (P06756 31-987 limits assumed): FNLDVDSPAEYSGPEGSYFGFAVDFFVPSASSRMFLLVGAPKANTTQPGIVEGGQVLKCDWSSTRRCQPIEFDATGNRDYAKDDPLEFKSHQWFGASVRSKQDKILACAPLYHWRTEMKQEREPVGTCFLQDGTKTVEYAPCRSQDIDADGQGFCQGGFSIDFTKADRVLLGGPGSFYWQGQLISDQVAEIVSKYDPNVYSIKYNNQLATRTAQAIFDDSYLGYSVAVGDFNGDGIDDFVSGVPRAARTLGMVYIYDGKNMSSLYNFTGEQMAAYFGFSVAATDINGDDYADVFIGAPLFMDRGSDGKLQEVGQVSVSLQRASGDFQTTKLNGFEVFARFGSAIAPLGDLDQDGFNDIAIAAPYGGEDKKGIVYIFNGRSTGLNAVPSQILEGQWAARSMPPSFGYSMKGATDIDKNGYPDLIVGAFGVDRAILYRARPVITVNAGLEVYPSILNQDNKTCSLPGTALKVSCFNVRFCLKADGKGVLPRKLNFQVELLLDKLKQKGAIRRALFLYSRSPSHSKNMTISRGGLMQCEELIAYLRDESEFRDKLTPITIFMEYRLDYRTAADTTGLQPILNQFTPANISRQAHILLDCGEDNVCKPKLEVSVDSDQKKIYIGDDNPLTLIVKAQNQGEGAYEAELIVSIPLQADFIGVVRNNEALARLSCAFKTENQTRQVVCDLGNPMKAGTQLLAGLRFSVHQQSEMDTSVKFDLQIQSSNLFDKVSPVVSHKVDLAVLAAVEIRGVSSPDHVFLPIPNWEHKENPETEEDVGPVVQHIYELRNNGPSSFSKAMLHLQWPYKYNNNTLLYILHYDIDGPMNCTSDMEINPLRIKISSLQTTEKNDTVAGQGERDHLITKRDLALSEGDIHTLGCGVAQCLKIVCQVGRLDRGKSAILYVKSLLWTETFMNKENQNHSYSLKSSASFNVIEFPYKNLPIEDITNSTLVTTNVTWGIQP
Target sequence in this assay (P05106 27-718 limits assumed, further chain): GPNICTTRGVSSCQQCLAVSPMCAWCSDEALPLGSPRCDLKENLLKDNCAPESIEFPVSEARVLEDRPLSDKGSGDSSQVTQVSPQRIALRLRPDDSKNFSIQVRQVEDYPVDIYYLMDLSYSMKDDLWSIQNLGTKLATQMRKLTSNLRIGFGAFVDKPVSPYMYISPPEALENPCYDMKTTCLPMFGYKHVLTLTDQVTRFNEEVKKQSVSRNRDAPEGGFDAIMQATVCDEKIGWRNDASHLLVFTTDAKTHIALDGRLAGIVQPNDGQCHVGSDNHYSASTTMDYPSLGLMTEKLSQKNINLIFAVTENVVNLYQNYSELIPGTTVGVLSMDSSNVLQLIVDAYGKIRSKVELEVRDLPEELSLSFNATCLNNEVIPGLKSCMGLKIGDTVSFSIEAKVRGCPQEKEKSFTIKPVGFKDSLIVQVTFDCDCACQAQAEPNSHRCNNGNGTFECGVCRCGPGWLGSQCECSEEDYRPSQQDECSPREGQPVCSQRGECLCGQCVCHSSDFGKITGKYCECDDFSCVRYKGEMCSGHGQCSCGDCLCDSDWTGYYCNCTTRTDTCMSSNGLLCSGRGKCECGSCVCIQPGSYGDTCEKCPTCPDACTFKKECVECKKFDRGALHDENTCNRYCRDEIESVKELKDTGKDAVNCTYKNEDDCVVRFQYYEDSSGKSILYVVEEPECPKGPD

[4] = test system: Sf9 cells expressing full length or truncated αV or β3; assay: Metabolic pulse labelling of proteins expressed in Sf9 cells; assay type: cell-based, insect; conditions: tunicamycin 10 μM or 10 μg/ml for 16 hours before and during pulse labelling; SDS-PAGE
Protocol: The cell extracts were resolved by SDS-PAGE under reducing conditions. The molecular mass in kDa of standard protein markers are indicated on the right. • (B) Sf9 cells infected with αV (FL) (lanes 1 and 2), αV(SL) (lane 3 and 4), β3 (FL) (lane 5 and 6) and β3(SL) (lane 7 and 8) were either treated with 10 μM Tunicamycin in DMSO (lanes 1, 3, 5 and 7) or with DMSO alone (lanes 2, 4, 6 and 8). The infected cells were metabolically pulse labelled as above. Standard protein markers are indicated on the right.
Similarly, Sf9 cells expressing full length β3 how two bands of approximately 90 kDa and 125 kDa (FIG. 2A, lane 4).
Metabolic labelling of Sf9 cells was performed as described (Summer and Smith 1987: A manual of methods for baculovirus vectors and insect cell procedures. Texas Agricultural Experiment Station Bulletin B-1555). Where indicated, tunicamycin (Sigma) was present at 10 μg/ml for 16 hours before and during pulse labelling. Cells were lysed with 100 μl of buffer [1% Nonidet® P-40, 1 mM CaCl2, 150 mM NaCl, 0.4 mM Pefabloc® (Boehringer Mann-heim), 10 μg/ml Leupeptin and E64 (Sigma), 10 mM Tris/HCl; pH 7.4; Nonidet P-40 is a detergent and Pefabloc is a protease inhibitor]. […]

**Q.** For `CC(C)[C@@H]1NC(=O)[C@@H](Cc2ccccc2)NC(=O)[C@H](CC(=O)O)NC(=O)CNC(=O)[C@H](CCCNC(=N)N)NC1=O` [cyc(RGDfV)], which IC50 [1] is on record?
**A.** 1 to 5 nM

**Q.** How did the “effect on cell shape change of αV and β3 virus infected Sf9 cells” value [2] turn out when “cyc(RGEfV) (cyclo(RGE[dF]V); SMILES CC(C)[C@@H]1NC(=O)[C@@H](Cc2ccccc2)NC(=O)[C@H](CCC(=O)O)NC(=O)CNC(=O)[C@H](CCCNC(=N)N)NC1=O) [control peptide where glutamate was substituted for aspartate]” was run?
**A.** no effect

**Q.** “cyc(RβADfV) (cyclo(R[βAla]D[dF]V); SMILES CC(C)[C@@H]1NC(=O)[C@@H](Cc2ccccc2)NC(=O)[C@H](CC(=O)O)NC(=O)CCNC(=O)[C@H](CCCNC(=N)N)NC1=O) [control peptide where β-alanine was substituted for glycine]” was tested. Which “effect on cell shape change of αV and β3 virus infected Sf9 cells” value [2] did it give?
**A.** no effect

**Q.** With fibrinogen as the compound, how does the “binding of biotinylated ligand to immobilized receptor” value (“binding of biotinylated ligand” for short) [3] read?
**A.** bind both to the full length and soluble receptor preparations in a concentration dependent manner

**Q.** How did the “binding of biotinylated ligand” value [3] turn out when fibronectin was run?
**A.** bind both to the full length and soluble receptor preparations in a concentration dependent manner

**Q.** For tunicamycin, which “production of the slower migrating (glycosylated) band” value [4] is on record?
**A.** inhibits the production of the slower migrating band

**Q.** For “vitronectin: purified RGD-containing ligand from human plasma, biotinylated”, which “binding of biotinylated ligand” value [3] is on record?
**A.** bind both to the full length and soluble receptor preparations in a concentration dependent manner
